Experimental findings from PubChem BioAssay AID493126 (Sanford-Burnham Center for Chemical Genomics, 2011) are described below.

Molecules are shown by their SMILES. The source made the active and inactive calls. How the calls were made is not given here.

The target in the assay is Alkaline phosphatase, germ cell type (Homo sapiens) (UniProt P10696). The assay is described as follows: PLAP enzyme activity modulators, SAR follow-up, selectivity assay for human IAP activator project, biochemical (AID 493126). The conditions noted are these: purified PLAP enzyme, counter-screen. In general terms: Counterscreens check selectivity or assay interference.
Chain of Alkaline phosphatase, germ cell type (Homo sapiens) (P10696 whole entry, looked up): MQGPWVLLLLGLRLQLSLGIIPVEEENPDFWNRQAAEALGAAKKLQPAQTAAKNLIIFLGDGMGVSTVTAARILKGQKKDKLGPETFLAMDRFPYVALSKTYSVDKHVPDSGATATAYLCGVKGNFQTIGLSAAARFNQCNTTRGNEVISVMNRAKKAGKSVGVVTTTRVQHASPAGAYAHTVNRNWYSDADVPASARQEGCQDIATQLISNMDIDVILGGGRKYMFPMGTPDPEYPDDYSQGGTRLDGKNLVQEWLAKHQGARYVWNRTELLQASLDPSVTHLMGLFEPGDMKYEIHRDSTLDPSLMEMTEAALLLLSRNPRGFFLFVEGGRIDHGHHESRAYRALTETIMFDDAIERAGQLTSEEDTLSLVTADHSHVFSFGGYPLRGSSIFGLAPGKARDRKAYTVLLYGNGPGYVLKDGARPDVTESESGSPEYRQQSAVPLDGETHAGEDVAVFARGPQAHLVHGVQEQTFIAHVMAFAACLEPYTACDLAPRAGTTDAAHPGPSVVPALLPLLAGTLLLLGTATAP
On to `CCOc1cc(/C=N/NC(=O)C(=O)N/N=C/c2ccc(O)c(OCC)c2)ccc1O`, for which the IC50 (inhibition of PLAP activity) is > 100 µM (inactive).
For the compound `COc1cc(/C=N\NC(=O)C(=O)N/N=C/c2cc(OC)c(O)c(OC)c2)cc(OC)c1O`, the IC50 (inhibition of PLAP activity) was > 100 µM (inactive).
On to `COc1cccc(C=NNC(=O)C(=O)NN=Cc2cccc(OC)c2O)c1O`, for which the IC50 (inhibition of PLAP activity) was 8.61 µM.
Then `COc1ccc(OC)c(/C=N/NC(=O)C(=O)N/N=C/c2cc(OC)ccc2OC)c1`, with 53.2 µM; and `O=C(N/N=C\c1ccc2c(c1)OCO2)C(=O)N/N=C/c1ccc2c(c1)OCO2`, with > 100 µM (inactive).
In the case of `O=C(NNC(=S)NC(=O)c1ccccc1[N+](=O)[O-])c1ccccc1O`, the IC50 (inhibition of PLAP activity) is 15 µM.
Then `CCOc1cccc(C=NNC(=O)c2cc(-c3cccn3C)n[nH]2)c1O`, with 9.86 µM.
As for `Cc1ccc(-c2cc(C(=O)NN=Cc3ccccc3O)n[nH]2)o1`, the IC50 (inhibition of PLAP activity) was 6.41 µM.
With `CC(C)C(=O)NC(=S)Nc1ccccc1C(=O)Nc1ccccc1`, the IC50 (inhibition of PLAP activity) is 9.56 µM.
In the case of `COc1ccc(-c2csc(Nc3cccc4ccccc34)n2)cc1F`, the IC50 (inhibition of PLAP activity) is > 100 µM (inactive).
Turning to `CC(=O)Nc1cccc(C(=O)NNC(=O)c2n[nH]c(=O)c3ccccc23)c1`, the IC50 (inhibition of PLAP activity) is 10.2 µM.
For `O=C(N/N=C/c1ccccc1O)c1n[nH]c2c1CCC2`, the IC50 (inhibition of PLAP activity) was 8.33 µM.
As to `O=C(N/N=C/c1ccccc1O)c1cc(C2CC2)[nH]n1`, the IC50 (inhibition of PLAP activity) is 8.62 µM.
As for `COc1cc(OC)c(OC)cc1/C=N/NC(=O)C(=O)N/N=C/c1cc(OC)c(OC)cc1OC`, the IC50 (inhibition of PLAP activity) is > 100 µM (inactive).
Then `Cc1cc(C(=O)NN=Cc2cccc([N+](=O)[O-])c2O)n[nH]1`, with > 100 µM (inactive).
With `O=C(N/N=C/c1ccc(O)cc1)C(=O)N/N=C/c1ccc(O)cc1`, the IC50 (inhibition of PLAP activity) is > 100 µM (inactive).
Then `O=C(N/N=C/c1c(O)ccc2ccccc12)C(=O)N/N=C/c1c(O)ccc2ccccc12`, with > 100 µM (inactive).
Take `Cc1ccc(O)c(C=NNC(=O)c2[nH]ncc2Br)c1`: the IC50 (inhibition of PLAP activity) is 14.6 µM.
Then `COc1cccc(C=NNC(=O)C2=NNC(=O)C2C)c1O` (stereo unspecified), with 8.02 µM.
Then `Cn1cccc1-c1cc(C(=O)NN=Cc2cc(Br)ccc2O)[nH]n1`, with 9.66 µM.
Consider `O=C(NN=Cc1ccccc1)C(=O)NN=Cc1ccccc1`, for which the IC50 (inhibition of PLAP activity) is 32.9 µM.
On to `OC(c1nc2ccc(F)cc2[nH]1)C(O)c1nc2ccc(F)cc2[nH]1` (stereo unspecified), for which the IC50 (inhibition of PLAP activity) was 6.83 µM.
Then `O=C(N/N=C\c1cccc(O)c1)C(=O)N/N=C/c1cccc(O)c1`, with 56.1 µM; and `O=C(NC(=S)NNC(=O)c1ccccc1O)c1ccc(F)cc1`, with 11 µM; and `O=C(NN=Cc1c(O)ccc2ccccc12)c1[nH]ncc1Br`, with > 100 µM (inactive).
With `N#CCOc1ccccc1/C=N/NC(=O)C(=O)N/N=C/c1ccccc1OCC#N`, the IC50 (inhibition of PLAP activity) is > 100 µM (inactive).
Then `COc1cccc(C=NNC(=O)c2cc(-c3cccn3C)n[nH]2)c1O`, with 8.67 µM; and `Cc1cc(C(=O)NN=Cc2cc(Cl)cc([N+](=O)[O-])c2O)n[nH]1`, with > 100 µM (inactive); and `COc1cc(/C=N/NC(=O)C(=O)N/N=C/c2ccc(O)c(OC)c2)ccc1O`, with 46.8 µM.
As to `O=C(N/N=C/c1cc(Br)ccc1O)c1cc(C2CC2)[nH]n1`, the IC50 (inhibition of PLAP activity) was 11.5 µM.
In the case of `CCN(CC)c1ccc(/C=N/NC(=O)C(=O)N/N=C/c2ccc(N(CC)CC)cc2O)c(O)c1`, the IC50 (inhibition of PLAP activity) is > 100 µM (inactive).
As for `O=C1Nc2ccc(Br)cc2C12NNc1ccccc1O2` (stereo unspecified), the IC50 (inhibition of PLAP activity) was 0.87 µM.
For `CCCCOc1ccc(/C=N/NC(=O)C(=O)N/N=C/c2ccc(OCCCC)cc2)cc1`, the IC50 (inhibition of PLAP activity) was > 100 µM (inactive).
Then `CN(C)c1ccc(/C=N/NC(=O)C(=O)N/N=C/c2ccc(N(C)C)cc2)cc1`, with > 100 µM (inactive).
Turning to `CC(C)Oc1ccccc1/C=N/NC(=O)C(=O)N/N=C/c1ccccc1OC(C)C`, the IC50 (inhibition of PLAP activity) was 52.3 µM.
Then `O=C(N/N=C/c1c(O)ccc2ccccc12)c1cc(-c2cccs2)[nH]n1`, with 31.8 µM; and `COc1cc(OC)cc(C(=O)NNC(=O)c2nn(C)c(=O)c3ccccc23)c1`, with 9.49 µM; and `CC1C(=O)NN=C1C(=O)NN=Cc1ccc(O)cc1O` (stereo unspecified), with 10.3 µM.
Regarding `Cc1cc(C(=O)N/N=C/c2cc(Br)ccc2O)n[nH]1`, the IC50 (inhibition of PLAP activity) was 10.3 µM.
`O=C(N/N=C/c1cc(Br)ccc1O)C(=O)N/N=C/c1cc(Br)ccc1O`: the IC50 (inhibition of PLAP activity) is > 100 µM (inactive).
`COc1cccc(C=NNC(=O)c2[nH]nc3c2CCc2ccccc2-3)c1O`: the IC50 (inhibition of PLAP activity) is 12.1 µM.
As for `COc1ccc(-c2cc(C(=O)NN=Cc3c(O)ccc4ccccc34)[nH]n2)cc1`, the IC50 (inhibition of PLAP activity) was > 100 µM (inactive).
Then `CC(=NNC(=O)C(=O)NN=C(C)c1cccc(O)c1)c1cccc(O)c1`, with > 100 µM (inactive); and `COc1ccc(/C=N/NC(=O)C(=O)N/N=C/c2ccc(OC)c(OC)c2)cc1OC`, with > 100 µM (inactive).
Then `C/C(=N\NC(=O)c1cc(C)[nH]n1)c1ccc2ccccc2c1O`, with 8.16 µM; and `O=C(NN=Cc1ccc(O)cc1O)C(=O)NN=Cc1ccc(O)cc1O`, with > 100 µM (inactive).
For the compound `CCOc1cccc(C=NNC(=O)c2cc(C3CC3)[nH]n2)c1O`, the IC50 (inhibition of PLAP activity) is 7.02 µM.
Regarding `O=C(N/N=C/c1ccccc1C(=O)O)C(=O)N/N=C/c1ccccc1C(=O)O`, the IC50 (inhibition of PLAP activity) was 58.1 µM.
As to `O=C(N/N=C/c1ccc2c(c1)OCO2)C(=O)N/N=C/c1ccc2c(c1)OCO2`, the IC50 (inhibition of PLAP activity) was > 100 µM (inactive).
In the case of `Cc1cc(C(=O)N/N=C\c2cc(C(C)(C)C)ccc2O)n[nH]1`, the IC50 (inhibition of PLAP activity) is 7.02 µM.
Turning to `COc1cc(/C=N/NC(=O)C(=O)N/N=C/c2cc(OC)c(OC)c(OC)c2)cc(OC)c1OC`, the IC50 (inhibition of PLAP activity) was > 100 µM (inactive).
Regarding `COC(=O)c1ccc(/C=N/NC(=O)C(=O)N/N=C/c2ccc(C(=O)OC)cc2)cc1`, the IC50 (inhibition of PLAP activity) is > 100 µM (inactive).
In the case of `CC(=O)Nc1ccc(/C=N/NC(=O)C(=O)N/N=C/c2ccc(NC(C)=O)cc2)cc1`, the IC50 (inhibition of PLAP activity) was > 100 µM (inactive).
On to `O=C(CCN1C(=O)/C(=C/c2ccccc2Cl)SC1=S)NNC(=O)c1ccccc1O`, for which the IC50 (inhibition of PLAP activity) is 23.7 µM.
For the compound `C/C(=N\NC(=O)c1[nH]nc2c1CCc1ccccc1-2)c1ccccc1O`, the IC50 (inhibition of PLAP activity) is 7.57 µM.
With `COc1cccc(C=NNC(=O)C(=O)NN=Cc2cccc(OC)c2OC)c1OC`, the IC50 (inhibition of PLAP activity) is 28.7 µM.
